What was measured:
[1] = In vitro maximum tolerated dose (MTL), Vero cells; assay type: cell-based, African Green Monkey; details: monkey, In Vitro
[2] = test system: herpes simplex virus; test: In Vivo - Intravaginal Herpes Virus Infection in Mice; design: species or system albino mice; details: Mus musculus, 336 h, oral or intraperitoneal, b.i.d. 5 days, NA = Not active at dose levels tested, read-out: In Vivo MED (Minimum effective dose)
Description: In Vivo - Intravaginal Herpes Virus Infection in Mice
Approximately 1 hr. prior to infection, the vaginas of 15 gm albino mice were swabbed with cotton saturated with 0.1 N NaOH to remove vaginal secretions and to irritate the vaginal mucosa slightly. At the proper time, 0.05 ml of an appropriate dose of herpes simplex virus was placed deep in the vagina. Starting 2.5 hrs. prior to infection, the mice were medicated either orally or intraperitoneally. Medication was continued daily for a total of 5 days on a b.i.d. regimen. The test was terminated after 14 days. A comparison of the number of surviving mice and/or extension of survival was made at the end of the test. The criterion for activity was a statistically significant extension of the average survival time of the test group over that of the control mice in two experiments.

[3] = design: species or system albino mice; details: mouse
Wherever In Vivo MTL (Maximum tolerated dose) is given: unit not given here.

| Compound | MNTC at 72 h ([1]; vero cells) | minimal effective dose [2] | In Vivo MTL (Maximum tolerated dose) [3] | MNTC at 72 h ([1]; Vero cells) |
| --- | --- | --- | --- | --- |
| NC(=O)c1cn(-c2ccc(F)cc2)c2cc(-c3ccncc3)ccc2c1=O [Example 1h, 1-(4-fluorophenyl)-1,4-dihydro-4-oxo-7-(4-pyridinyl)-3-quinolinecarboxamide] | > 3.1 µg/mL | 12.5 to 25 mg/kg/day | 50-100 |  |
| NC(=O)c1cn(-c2ccc(F)cc2)c2cc(-c3cc[n+]([O-])cc3)ccc2c1=O [Example 2, 1-(4-Fluorophenyl)-1,4-dihydro-4-oxo-7-(N-oxide-4-pyridinyl)-3-quinolinecarboxamide] | > 12.5 µg/mL | 25 mg/kg/day | 100 |  |
| CCN(CC)CNC(=O)c1cn(-c2ccc(F)cc2)c2cc(-c3ccncc3)ccc2c1=O [Example 3, N-(Diethylaminomethyl)-1-(4-fluorophenyl)-1,4-dihydro-4-oxo-7-(4-pyridinyl)-3-quinolinecarboxamide] | 12.5 µg/mL | 50 mg/kg/day | 100 |  |
| O=C(NCN1CCOCC1)c1cn(-c2ccc(F)cc2)c2cc(-c3ccncc3)ccc2c1=O [Example 4, N-(4-Morpholinylmethyl)-1-(4-fluorophenyl)-1,4-dihydro-4-oxo-7-(4-pyridinyl)-3-quinolinecarboxamide] | > 12.5 µg/mL |  |  |  |
| O=C(NCN1CCCCC1)c1cn(-c2ccc(F)cc2)c2cc(-c3ccncc3)ccc2c1=O [Example 5, N-(1-Piperidinylmethyl)-1-(4-fluorophenyl)-1,4-dihydro-4-oxo-7-(4-pyridinyl)-3-quinolinecarboxamide] | > 12.5 µg/mL |  |  |  |
| CCn1cc(C(N)=O)c(=O)c2ccc(-c3ccncc3)cc21 [Example 6, 1-Ethyl-1,4-dihydro-4-oxo-7-(4-pyridinyl)-3-quinolinecarboxamide] | 12.5 µg/mL | 50 mg/kg/day | 50 |  |
| CCn1cc(C(N)=O)c(=O)c2ccc(-c3cc(C)nc(C)c3)cc21 [Example 7, 1-Ethyl-1,4-dihydro-4-oxo-7-(2,6-dimethyl-4-pyridinyl)-3quinolinecarboxamide] | 12.5 µg/mL |  | 25 |  |
| COc1ccc(-n2cc(C(N)=O)c(=O)c3ccc(-c4ccncc4)cc32)cc1 [Example 8, 1,4-Dihydro-1-(4-methoxyphenyl)-4-oxo-7-(4-pyridinyl)-3quinolinecarboxamide] | > 25 µg/mL |  | 50 |  |
| CC(C)(C)c1ccc(-n2cc(C(N)=O)c(=O)c3ccc(-c4ccncc4)cc32)cc1 [Example 9, 1-[4-(1,1-Dimethylethyl)phenyl]-1,4-dihydro-4-oxo-7-(4-pyridinyl)-3-quinolinecarboxamide] | > 25 µg/mL |  |  |  |
| NC(=O)c1cn(C2CC2)c2cc(-c3ccncc3)ccc2c1=O [Example 11, 1-Cyclopropyl-1,4-dihydro-4-oxo-7-(4-pyridinyl)-3-quinolinecarboxamide] | 25 µg/mL |  | 25 |  |
| NC(=O)c1cn(Cc2ccc(Cl)c(Cl)c2)c2cc(-c3ccncc3)ccc2c1=O [Example 12, 1-(3,4-Dichlorobenzyl)-1,4-dihydro-4-oxo-7-(4-pyridinyl)-3-quinolinecarboxamide] | > 100 µg/mL |  | > 100 |  |
| Cc1ccc(-n2cc(C(N)=O)c(=O)c3ccc(-c4ccncc4)cc32)cc1C [Example 13, 1,4-Dihydro-1-(3,4-dimethylphenyl)-4-oxo-7-(4-pyridinyl)-3-quinolinecarboxamide] | > 100 µg/mL |  |  |  |
| NC(=O)c1cn(-c2ccc(F)cc2F)c2cc(-c3ccncc3)ccc2c1=O [Example 15, 1-(2,4-Difluorophenyl)-1,4-dihydro-4-oxo-7-(4-pyridinyl)-3-quinolinecarboxamide] | 3.1 µg/mL |  | < 25 |  |
| Cn1cc(C(N)=O)c(=O)c2ccc(-c3ccncc3)cc21 [Example 16, 1,4-Dihydro-1-methyl-4-oxo-7-(4-pyridinyl)-3-quinolinecarboxamide] | > 25 µg/mL |  | 25 |  |
| CCCCn1cc(C(N)=O)c(=O)c2ccc(-c3ccncc3)cc21 [Example 17, 1-Butyl-1,4-dihydro-4-oxo-7-(4-pyridinyl)-3-quinolinecarboxamide] | 6.2 µg/mL |  | 50 |  |
| CCCn1cc(C(N)=O)c(=O)c2ccc(-c3ccncc3)cc21 [Example 18, 1,4-Dihydro-4-oxo-1-propyl-7-(4-pyridinyl)-3-quinolinecarboxamide] | 6.25 µg/mL |  |  |  |
| C=CCn1cc(C(N)=O)c(=O)c2ccc(-c3ccncc3)cc21 [Example 19, 1,4-Dihydro-4-oxo-1-(2-propenyl)-7-(4-pyridinyl)-3-quinolinecarboxamide] | 6.25 µg/mL |  | < 50 |  |
| CCn1cc(C(N)=O)c(=O)c2ccc(-c3ccccn3)cc21 [Example 20, 1-Ethyl-1,4-dihydro-4-oxo-7-(2-pyridinyl)-3-quinolinecarboxamide] | 25 µg/mL |  | 100 |  |

| Compound | MNTC at 72 h ([1]; vero cells) | minimal effective dose [2] | In Vivo MTL (Maximum tolerated dose) [3] | MNTC at 72 h ([1]; Vero cells) |
| --- | --- | --- | --- | --- |
| NC(=O)c1cn(-c2ccccc2)c2cc(-c3ccncc3)ccc2c1=O [Example 21, 1,4-Dihydro-4-oxo-1-phenyl-7-(4-pyridinyl)-3-quinolinecarboxamide] | 6.25 µg/mL |  |  |  |
| Cc1cc(-c2ccc3c(=O)c(C(N)=O)cn(-c4ccc(F)cc4)c3c2)on1 [Example 22f] | > 100 µg/mL |  | > 200 |  |
| CCn1cc(C(N)=O)c(=O)c2ccc(-c3cc(C)no3)cc21 [Example 23d, 1-Ethyl-1,4-dihydro-7-(3-methyl-5-isoxazolyl)-4-oxo-3-quinolinecarboxamide] | > 100 µg/mL |  | > 200 |  |
| CCn1cc(C(N)=O)c(=O)c2ccc(-c3ccno3)cc21 [Example 24c, 1-Ethyl-1,4-dihydro-7-(5-isoxazolyl)-4-oxo-3-quinolinecarboxamide] | 12.5 µg/mL |  | > 200 |  |
| CCn1cc(C(N)=O)c(=O)c2cc(F)c(-c3ccncc3)cc21 [Example 25, 1-Ethyl-6-fluoro-1,4-dihydro-4-oxo-7-(4-pyridinyl)-3quinolinecarboxamide] | > 100 µg/mL |  |  |  |
| CCCCCn1cc(C(N)=O)c(=O)c2ccc(-c3ccncc3)cc21 [Example 26, 1,4-Dihydro-4-oxo-1-pentyl-7-(4-pyridinyl)-3-quinolinecarboxamide] |  |  |  | 6.2 µg/mL |
| CCn1cc(C(N)=O)c(=O)c2ccc(-c3cccnc3)cc21 [Example 27b, 1-Ethyl-1,4-dihydro-4-oxo-7-(3-pyridinyl)-3-quinolinecarboxamide] | 50 µg/mL |  | 100 |  |
| CCn1cc(C(=O)NN)c(=O)c2ccc(-c3ccncc3)cc21 [Example 29, 1-Ethyl-1,4-dihydro-4-oxo-7-(4-pyridinyl)-3-quinolinecarboxylic acid hydrazide] | 50 µg/mL |  | 100 |  |
| CCn1cc(C(=O)NO)c(=O)c2ccc(-c3ccncc3)cc21 [Example 30, 1-Ethyl-1,4-dihydro-N-hydroxy-4-oxo-7-(4-pyridinyl)-3quinolinecarboxamide] | 25 µg/mL |  | 100 |  |
| NC(=O)c1cn(-c2ccc(Cl)cc2)c2cc(-c3ccncc3)ccc2c1=O [Example 32, 1-(4-Chlorophenyl)-1,4-dihydro-7-(4-pyridinyl)-4-oxo-3quinolinecarboxamide] |  | 50 mg/kg/day |  | > 25 µg/mL |
| Cc1ccc(-n2cc(C(N)=O)c(=O)c3ccc(-c4ccncc4)cc32)cc1 [Example 33, 1,4-Dihydro-1-(4-methylphenyl)-7-(4-pyridinyl)-4-oxo-3quinolinecarboxamide] | > 25 µg/mL |  | 50 |  |
| NC(=O)c1cn(-c2ccccc2F)c2cc(-c3ccncc3)ccc2c1=O [Example 34, 1,4-Dihydro-1-(2-fluorophenyl)-7-(4-pyridinyl)-4-oxo-3quinolinecarboxamide] | 1.6 µg/mL |  | 100 |  |
| NC(=O)c1cn(-c2ccc(C(F)(F)F)cc2)c2cc(-c3ccncc3)ccc2c1=O [Example 35, 1,4-Dihydro-7-(4-pyridinyl)-1-(4-trifluoromethylphenyl)-4-oxo-3-quinolinecarboxamide] | > 100 µg/mL |  | 50 |  |
| CCn1cc(C(=O)NN)c(=O)c2ccc(-c3ccccc3)cc21 [Example 36, 1-Ethyl-1,4-dihydro-4-oxo-7-phenyl-3-quinolinecarboxylic acid hydrazide] | 25 µg/mL |  | > 200 |  |
| CCn1c(N)c(C(N)=O)c(=O)c2ccc(-c3ccncc3)cc21 [Example 40b, 2-Amino-1,4-dihydro-1-ethyl-4-oxo-7-(4-pyridinyl)-3quinolinecarboxamide] | > 12.5 µg/mL |  | > 100 |  |
| NC(=O)c1cn(-c2ccc(F)cc2)c2cc(-c3ccccc3)ccc2c1=O [Example 44, 1,4-Dihydro-1-(4-fluorophenyl)-4-oxo-7-phenyl-3-quinolinecarboxamide] | 12.5 µg/mL |  | > 200 |  |
| NC(=O)c1c(O)n(-c2ccc(F)cc2)c2cc(-c3ccncc3)ccc2c1=O [Example 47e, 1,4-Dihydro-1-(4-fluorophenyl)-2-hydroxy-7-(4-pyridinyl)4-oxo-3-quinolinecarboxamide] | > 100 µg/mL |  |  |  |
| NC(=O)c1cn(-c2ccc(F)cc2)c2cc(-c3ccncc3)c(F)cc2c1=O [Example 48c] | 6.25 µg/mL |  | > 100 |  |
